Patent US20140343049A1, “DIHYDROFURAN DERIVATIVES AS INSECTICIDAL COMPOUNDS” (SYNGENTA PARTICIPATIONS AG, priority 2011, published 2014)

Assays:
Format in all cases: in vivo
[1] = test system: Spodoptera littoralis (Egyptian cotton leafworm); experiment: Spodoptera littoralis cotton leaf disc spray test; conditions: foliar, 72 h, cotton leaf discs sprayed at 200 ppm, 5 L1 larvae, mortality, feeding behavior, growth regulation 3 days after treatment
Excerpt: Cotton leaf discs were placed on agar in a 24-well microtiter plate and sprayed with test solutions at an application rate of 200 ppm. After drying, the leaf discs were infested with 5 L1 larvae. The samples were checked for mortality, feeding behavior, and growth regulation 3 days after treatment (DAT).

[2] = test system: Heliothis virescens (tobacco budworm); experiment: Heliothis virescens egg test on artificial diet; conditions: 96 h, 200 ppm (concentration in well 18 ppm), eggs 0-24 h old, 4 days, egg mortality, larval mortality, growth regulation
Description: Eggs (0-24 h old) were placed in 24-well microtiter plate on artificial diet and treated with test solutions at an application rate of 200 ppm (concentration in well 18 ppm) by pipetting. After an incubation period of 4 days, samples were checked for egg mortality, larval mortality, and growth regulation.

[3] = test system: Plutella xylostella (diamond back moth); experiment: Plutella xylostella L2 larvae test on artificial diet; conditions: 144 h, 200 ppm (concentration in well 18 ppm), 6 days, larval mortality and growth regulation
Description: (§1) 24-well microtiter plate (MTP) with artificial diet was treated with test solutions at an application rate of 200 ppm (concentration in well 18 ppm) by pipetting. After drying, the MTPs were infested with L2 larvae (7-12 per well). After an incubation period of 6 days, samples were checked for larval mortality and growth regulation.

[4] = test system: Diabrotica balteata (corn root worm); experiment: Diabrotica balteata L2 larvae test on artificial diet; conditions: 120 h, 200 ppm (concentration in well 18 ppm), 5 days, larval mortality and growth regulation
Description: as §1, with “A 24-well” for “24-well”, “(6-10” for “(7-12”, “5” for “6”
as §1, with “A 24-well” for “24-well”, “12.5” for “200”, “MTP's” for “MTPs”, “(6-10” for “(7-12”, “5” for “6”

[5] = test system: Tetranychus urticae (two-spotted spider mite); experiment: Tetranychus urticae bean leaf disc spray test; conditions: foliar, 192 h, bean leaf discs sprayed at 200 ppm, mixed ages, egg, larval and adult mortality 8 days later
Excerpt: Bean leaf discs on agar in 24-well microtiter plates were sprayed with test solutions at an application rate of 200 ppm. After drying, the leaf discs are infested with mite populations of mixed ages. 8 days later, discs are checked for egg mortality, larval mortality, and adult mortality. […]

Measured: pest or weed control at 200 ppm

Cc1cc(C2=CC(c3cc(Cl)cc(Cl)c3)(C(F)(F)F)OC2)ccc1C(=O)NCC(F)(F)F (centres unmarked) [Compound A3]
≥ 80%: all assays above

COc1ccc(CNC(=O)c2ccc(C3=CC(c4cc(Cl)cc(Cl)c4)(C(F)(F)F)OC3)cc2C)cc1 (centres unmarked) [Compound A10]
not listed: [4]
≥ 80%: all other assays above

Cc1csc(NC(=O)c2ccc(C3=CC(c4cc(Cl)cc(Cl)c4)(C(F)(F)F)OC3)cc2C)n1 (centres unmarked) [Compound A11]
not listed: [4]
≥ 80%: all other assays above

Cc1cc(C2=CC(c3cc(Cl)cc(Cl)c3)(C(F)(F)F)OC2)ccc1C(=O)NC1(C)CSC1 (centres unmarked) [Compound A12]
not listed: [4]
≥ 80%: all other assays above

Cc1cc(C2=CC(c3cc(Cl)cc(Cl)c3)(C(F)(F)F)OC2)ccc1C(=O)NC1C[S+]([O-])C1 (centres unmarked) [Compound A13]
≥ 80%: [1] | [2] | [5]

Cc1cc(C2=CC(c3cc(Cl)cc(Cl)c3)(C(F)(F)F)OC2)ccc1C(=O)NC1CCC1 (centres unmarked) [Compound A14]
≥ 80%: [1] | [2] | [5]

Cc1cc(C2=CC(c3cc(Cl)cc(Cl)c3)(C(F)(F)F)OC2)ccc1C(=O)NCc1nc2ccccc2[nH]1 (centres unmarked) [Compound A18]
not listed: [1]
≥ 80%: all other assays above

CCC(CO)NC(=O)c1ccc(C2=CC(c3cc(Cl)cc(Cl)c3)(C(F)(F)F)OC2)cc1C (centres unmarked) [Compound A28]
≥ 80%: [1] | [5]

Cc1cc(C2=CC(c3cc(Cl)cc(Cl)c3)(C(F)(F)F)OC2)ccc1C(=O)NCc1cccnc1 (centres unmarked) [Compound A35]
≥ 80%: all assays above

Cc1cc(C2=CC(c3cc(Cl)cc(Cl)c3)(C(F)(F)F)OC2)ccc1C(=O)NC(C)c1ccccc1 (centres unmarked) [Compound A38]
not listed: [4]
≥ 80%: all other assays above

Cc1cc(C2=CC(c3cc(Cl)cc(Cl)c3)(C(F)(F)F)OC2)ccc1C(=O)NC1CC(C)(C)N(C)C(C)(C)C1 (centres unmarked) [Compound A40]
≥ 80%: [5]

Cc1cc(C2=CC(c3cc(Cl)cc(Cl)c3)(C(F)(F)F)OC2)ccc1C(=O)NCc1cccc(Cl)c1 (centres unmarked) [Compound A43]
≥ 80%: [1] | [4] | [5]

CC(=O)NCCNC(=O)c1ccc(C2=CC(c3cc(Cl)cc(Cl)c3)(C(F)(F)F)OC2)cc1C (centres unmarked) [Compound A45]
≥ 80%: [5]

Cc1cc(C2=CC(c3cc(Cl)cc(Cl)c3)(C(F)(F)F)OC2)ccc1C(=O)NCc1ccc(-n2cccn2)cc1 (centres unmarked) [Compound A46]
not listed: [1]
≥ 80%: all other assays above

CSCCNC(=O)c1ccc(C2=CC(c3cc(Cl)cc(Cl)c3)(C(F)(F)F)OC2)cc1C (centres unmarked) [Compound A49]
≥ 80%: all assays above

Cc1cc(C2=CC(c3cc(Cl)cc(Cl)c3)(C(F)(F)F)OC2)ccc1C(=O)NCc1ccc(Cl)nc1 (centres unmarked) [Compound A52]
not listed: [4]
≥ 80%: all other assays above

Cc1cc(C2=CC(c3cc(Cl)cc(Cl)c3)(C(F)(F)F)OC2)ccc1C(=O)Nc1ccccc1Cl (centres unmarked) [Compound A56]
not listed: [1]
≥ 80%: all other assays above

Cc1cc(C2=CC(c3cc(Cl)cc(Cl)c3)(C(F)(F)F)OC2)ccc1C(=O)Nc1cccc2ncccc12 (centres unmarked) [Compound A57]
≥ 80%: all assays above

COc1ccc(NC(=O)c2ccc(C3=CC(c4cc(Cl)cc(Cl)c4)(C(F)(F)F)OC3)cc2C)c(OC)c1 (centres unmarked) [Compound A58]
not listed: [1]
≥ 80%: all other assays above

CSc1ccccc1NC(=O)c1ccc(C2=CC(c3cc(Cl)cc(Cl)c3)(C(F)(F)F)OC2)cc1C (centres unmarked) [Compound A63]
≥ 80%: [3] | [4] | [5]

Cc1cc(C2=CC(c3cc(Cl)cc(Cl)c3)(C(F)(F)F)OC2)ccc1C(=O)Nc1ccc2ncsc2c1 (centres unmarked) [Compound A64]
not listed: [5]
≥ 80%: all other assays above

Cc1cc(C2=CC(c3cc(Cl)cc(Cl)c3)(C(F)(F)F)OC2)ccc1C(=O)NCC1CCS1 (centres unmarked) [Compound A80]
≥ 80%: all assays above

O=C(NCc1ccccc1)c1ccc(C2=CC(c3cc(Cl)cc(Cl)c3)(C(F)(F)F)OC2)nc1 (centres unmarked) [Compound B9]
≥ 80%: [3] | [5]

Cc1nc(C2=CC(c3cc(Cl)cc(Cl)c3)(C(F)(F)F)OC2)ccc1C(=O)NCC(F)(F)F (centres unmarked) [Compound C1]
not listed: [5]
≥ 80%: all other assays above

CCCCNC(=O)c1ccc(C2=CC(c3cc(Cl)cc(Cl)c3)(C(F)(F)F)OC2)nc1C (centres unmarked) [Compound C3]
not listed: [5]
≥ 80%: all other assays above

Cc1nc(C2=CC(c3cc(Cl)cc(Cl)c3)(C(F)(F)F)OC2)ccc1C(=O)NCc1ccccc1 (centres unmarked) [Compound C9]
not listed: [5]
≥ 80%: all other assays above

Cc1nc(C2=CC(c3cc(Cl)cc(Cl)c3)(C(F)(F)F)OC2)ccc1C(=O)NCc1ccccc1F (centres unmarked) [Compound C10]
not listed: [5]
≥ 80%: all other assays above

Cc1nc(C2=CC(c3cc(Cl)cc(Cl)c3)(C(F)(F)F)OC2)ccc1C(=O)NC(C)c1ccccc1 (centres unmarked) [Compound C11]
not listed: [5]
≥ 80%: all other assays above

COc1ccc(CNC(=O)c2ccc(C3=CC(c4cc(Cl)cc(Cl)c4)(C(F)(F)F)OC3)nc2C)cc1 (centres unmarked) [Compound C12]
not listed: [5]
≥ 80%: all other assays above

Cc1cc(C2=CC(c3cc(Cl)cc(Cl)c3)(C(F)(F)F)OC2=O)ccc1C(=O)NC1(C)CSC1 (centres unmarked) [Compound E16]
≥ 80%: [5]

O=C(NC1CS(=O)(=O)C1)c1ccc(C2=CC(c3cc(Cl)cc(Cl)c3)(C(F)(F)F)OC2)nc1Cl (centres unmarked) [Compound F2, 2-Chloro-6-[5-(3,5-dichloro-phenyl)-5-trifluoromethyl-2,5-dihydro-furan-3-yl]-N-(1,1-dioxo-1lambda*6*-thietan-3-yl)-nicotinamide]
not listed: [4]
≥ 80%: all other assays above

N#Cc1cc(C2=CC(c3cc(Cl)cc(Cl)c3)(C(F)(F)F)OC2)ccc1-n1cncn1 (centres unmarked) [Compound G1, 5-[5-(3,5-Dichloro-phenyl)-5-trifluoromethyl-2,5-dihydro-furan-3-yl]-2-[1,2,4]triazol-1-yl-benzonitrile]
not listed: [5]
≥ 80%: all other assays above
